Reference: patent US20240226065A1, “USE OF RAGE INHIBITORS TO TREAT CANCER-RELATED COGNITIVE DECLINE” (Georgetown University, priority 2021, published 2024)

System: APOE4 mice
Test: Barnes maze (spatial learning and memory) after doxorubicin treatment in APOE4 mice
Assay type: in vivo, mouse
Conditions: female APOE4 mice
Procedure: A study was conducted to evaluate the effects of RAGE inhibition on preventing CRCD. The study was performed using a mouse model of C57BL/6 J mice having the human APOE4 allele in the mouse APOE gene locus.
In the study, 24 female APOE mice were divided evenly into three treatment groups: Group 1, which received a vehicle control; Group 2, which received doxorubicin, a chemotherapy medication used to treat a variety of cancers that include breast cancer, bladder cancer, Kaposi's sarcoma, lymphoma, and acute lymphocytic leukemia; and Group 3, which received doxorubicin and FPS-ZM1, RAGE antagonist. Groups 2 and 3 were administered the doxorubicin as two doses of 5 mg/kg, separated by one week. Group 3 was administered 2 mg/kg of FPS-ZMI twice per week by intraperitoneal injection starting one week before the first administration of doxorubicin and continuing throughout the study.
Four weeks after doxorubicin treatment (or the vehicle control) was completed, mice were analyzed for hippocampal based memory via the Barnes maze (San Diego Instruments Inc., San Diego, CA). […] The apparatus was captured by overhead video and assessed using ANY-maze™ software. […]
The time to identify the correct (escape) hole on the final day is compared between groups. Primary latency, defined as the time for the mouse to make a first nose poke into the escape hole, was assessed. […]

| primary latency (time to first nose poke into the escape hole) (Group 2: doxorubicin two doses of 5 mg/kg one week apart, Barnes maze training day 4, four weeks after doxorubicin, Group 1 control 24.6 seconds) [s] | SMILES | primary latency (latency to identify the escape hole) (Group 3: doxorubicin two doses of 5 mg/kg plus FPS-ZM1 2 mg/kg intraperitoneal twice per week from one week before doxorubicin, training day 4, p=0.12 vs Group 2) [s] |
| --- | --- | --- |
| – | O=C(c1ccc(Cl)cc1)N(Cc1ccccc1)C1CCCCC1 [FPS-ZMI] | 28.0 |
| 58.2 | COc1cccc2c1C(=O)c1c(O)c3c(c(O)c1C2=O)C[C@@](O)(C(=O)CO)C[C@@H]3O[C@H]1C[C@H](N)[C@H](O)[C@H](C)O1 [doxorubicin] | – |
